Source: patent US9120795B2, “Crystalline form of a β-lactamase inhibitor” (Cubist Pharmaceuticals, Inc., priority 2013, dated 2015)

Legend:
[1] = tested on: Kpn.2478 (KPC-2, TEM+, clinical); assay: Standard BLI potentiation MIC assay; assay type: cell-based; conditions: Klebsiella pneumoniae, read-out: MIC of β-lactam with BLI
Procedure: (§1) The experimental protocol was performed according to Clinical and Laboratory Standards Institute (CLSI) guidelines with modifications as described below (CLSI guidelines can be derived from the CLSI document M07-A9 published in January 2012: “Methods for Dilution Antimicrobial Susceptibility Tests for Bacteria That Grow Aerobically; Approved Standard-Ninth Edition”).
(§2) To prepare for MIC testing, frozen glycerol stocks of clinical isolates (Klebsiella pneumoniae, Eschericia coli, Enterobacter spp, Citrobacter spp, or Pseudomonas aeruginosa) were used to streak for isolated colonies on rich, non-selective, tryptic soy agar containing 5% sheep's blood (TSAB). Frozen glycerol stocks of laboratory engineered, isogenic E. coli strains, which contain cloned β-lactamase expressing plasmids were used to streak for isolated colonies on rich, selective LB agar supplemented with 25 μg/mL tetracycline to maintain the plasmid. All strains were incubated at 37° C. for 18-24 hrs.
(§3) On the day of testing, primary cultures were started by scraping off 5-10 colonies from the TSAB plates containing clinical strains or the tetracycline supplemented LB plates containing engineered strains. The clinical strain material was suspended in ˜5 mL of cation adjusted Mueller Hinton Broth (CAMHB) in 14 mL culture tubes. The engineered strain material was suspended in CAMHB (supplemented with 25 μg/mL tetracycline) in 14 mL culture tubes. All strains were incubated at 37° C. with aeration (200 rpm) for ˜2 hrs until the optical density at 600 nm (OD600) was ≧0.1.
(§4) The two compound components of the assay were each diluted in CAMHB and added to the 96-well broth microdilution assay plates. 50 μL of the β-lactam was added to each well of the assay plate in 2-fold dilutions with final concentrations ranging from 128 to 0.13 μg/mL. 25 μL of the BLI compound was added to all wells in the broth microdilution plates at a final concentration of 4 μg/mL. Inoculum cultures were prepared by standardizing the primary cultures to OD600=0.1 and then adding 20 μL of the adjusted primary culture per 1 mL CAMHB for clinical strains or CAMHB (supplemented with tetracycline at 100 μg/mL) for engineered strains, so that the final inoculum density was ˜10^5 colony forming units per milliliter. Diluted inoculum cultures were used to inoculate 25 μL per well in 96-well broth microdilution assay plates. The final volume of each well was 100 μL and contained a β-lactam at different concentrations, a BLlcompound at 4 μg/mL concentration, the bacterial culture at an OD600 of approximately 0.001 and when necessary tetracycline at 25 μg/mL.
(§5) Plates were incubated for 18-20 hours at 37° C. with aeration (200 rpm). Following incubation, growth was confirmed visually placing plates over a viewing apparatus (stand with a mirror underneath) and then OD600 was measured using a SpectraMax 340PC384 plate reader (Molecular Devices, Sunnyvale, Calif.). Growth was defined as turbidity that could be detected with the naked eye or achieving minimum OD600 of 0.1. MIC values were defined as the lowest concentration producing no visible turbidity.

[2] = tested on: Kpn.2783 (CTX-M-15, SHV+, TEM+, clinical); assay: Standard BLI potentiation MIC assay; assay type: cell-based; conditions: Klebsiella pneumoniae, read-out: MIC of β-lactam with BLI
Procedure: as §1, §2, §3, §4, §5

[3] = tested on: Kpn.2913 (KPC-2, SHV+, clinical); assay: Standard BLI potentiation MIC assay; assay type: cell-based; conditions: Klebsiella pneumoniae, read-out: MIC of β-lactam with BLI
Procedure: as §1, §2, §3, §4, §5

[4] = tested on: Kpn.2918 (KPC-3, SHV+, TEM+, clinical); assay: Standard BLI potentiation MIC assay; assay type: cell-based; conditions: Klebsiella pneumoniae, read-out: MIC of β-lactam with BLI
Procedure: as §1, §2, §3, §4, §5

[5] = tested on: Kpn.2926 (CTX-M-15, OXA-48, clinical); assay: Standard BLI potentiation MIC assay; assay type: cell-based; conditions: Klebsiella pneumoniae, read-out: MIC of β-lactam with BLI
Procedure: as §1, §2, §3, §4, §5

[6] = tested on: Pae.2757 (AmpC over-expn, clinical); assay: Standard BLI potentiation MIC assay; assay type: cell-based; conditions: Pseudomonas aeruginosa, read-out: MIC of β-lactam with BLI
Procedure: as §1, §2, §3, §4, §5

[7] = tested on: Pae.2808 (KPC-2, clinical); assay: Standard BLI potentiation MIC assay; assay type: cell-based; conditions: Pseudomonas aeruginosa, read-out: MIC of β-lactam with BLI
Procedure: as §1, §2, §3, §4, §5

Pae clinical, KPC-2 = assay: Synergy MIC (sMIC) assay; assay type: cell-based, Pseudomonas aeruginosa; conditions: KPC-2, clinical Pae; CXA-101 at 4 μg/mL
Procedure: The synergy MIC (sMIC) assay determines the concentration of the BLI required to potentiate the activity of a fixed concentration of a β-lactam antibiotic against β-lactamase producing bacterial strains. The experimental protocol was performed according to Clinical and Laboratory Standards Institute (CLSI) guidelines with modifications as described below (CLSI guidelines can be derived from the CLSI document M07-A9 published in January 2012: “Methods for Dilution Antimicrobial Susceptibility Tests for Bacteria That Grow Aerobically; Approved Standard-Ninth Edition”). […]
as §5, with “sMIC” for “MIC”, “turbidity. […]” for “turbidity.”

## O=C1N2C[C@@H](CC[C@H]2c2nnco2)N1OS(=O)(=O)[O-].[Na+] [Hydrate 1, sodium (2S,5R)-2-(1,3,4-oxadiazol-2-yl)-7-oxo-1,6-diazabicyclo[3.2.1]octan-6-yl sulfate]
[1]
  MIC: 4 to 8 µg/mL
[2]
  MIC: 0.25 to 0.5 µg/mL
[3]
  MIC: 0.25 to 0.5 µg/mL
[4]
  MIC: 1 to 2 µg/mL
[5]
  MIC: 1 to 2 µg/mL
[6]
  MIC: 1 to 2 µg/mL
[7]
  MIC: 4 to 8 µg/mL
Pae clinical, KPC-2
  sMIC: C (C = 4-8 μg/mL)
